# System: tobacco budworm (Heliothis virescens [Fabricius])
# Assay: diet test: insect growth inhibition and mortality, tobacco budworm larvae, 5-day exposure
# Format: in vivo
# Details: second instar larvae
# Experimental: The 5-deazapteridine of the present invention were incorporated into an artificial diet for evaluation of insecticidal activity against the tobacco budworm (Heliothis virescens [Fabricius]).
# Stock solutions of test chemical in dimethyl sulfoxide were prepared for each rate of application. The rates of application, expressed as the negative log of the molar concentration, and the corresponding concentrations of the stock solution prepared for each rate are shown below:
# One hundred microliters of each of the stock solutions was manually stirred into 50 mL of a molten (65°-70° C.) wheat germ-based artificial diet. The 50 mL of molten diet containing the test chemical was poured evenly into twenty wells in the outer four rows of a twenty-five well, five row plastic tray. Each well in the tray was about 1 cm in depth, with an opening of 3 cm by 4 cm at the lip. Molten diet containing only dimethyl sulfoxide at the levels used in the test chemical-treated diet was poured into the five wells in the third row of the tray. Each tray therefore contained one test chemical at a single rate of application, together with an untreated control.
# Single second instar tobacco budworm larvae were placed in each well. The larvae were selected at a stage of growth at which they uniformly weigh about 5 mg each. Upon completion of infestation, a sheet of clear plastic was heat-sealed over the top of the tray using a common household flat iron. The trays were held at 25° C. at 60% relative humidity for five days in a growth chamber. Lighting was set at 14 hours of light and 10 hours of darkness.
# After the 5-day exposure period, mortality counts were taken, and the surviving insects were weighed. From the weights of the surviving insects that fed on the treated diet as compared to those insects that fed on the untreated diet, the percent growth inhibition caused by each test chemical was determined. […] Where possible, the negative log of the concentration of the test chemical that provided 50% mortality (pLC50) was also determined.
# The compounds of the present invention were tested in the diet test as insect growth inhibitors against the larvae of tobacco budworm (above).
smiles,measurement,setting,value
"COc1ccc(OC)c(Cc2cnc3nc(N)nc(N)c3c2C)c1 [Compound 90, 2,4-diamino-5-methyl-6-(2,5-dimethoxyphenylmethyl)-5-deazapteridine]",IC50,"Heliothis virescens, 120 h, artificial diet, linear regression, read-out: pI50: negative log of the concentration that provides 50% growth inhibition (converted)",1000 nM
same,Percent Growth Inhibition,rate of application 4 (negative log of molar concentration in diet),95%
same,Percent Growth Inhibition,rate of application 5 (negative log of molar concentration in diet),87%
same,Percent Growth Inhibition,rate of application 6 (negative log of molar concentration in diet),41%
same,Percent Growth Inhibition,rate of application 7 (negative log of molar concentration in diet),26%
